For this experiment, the system named is Huh7 cells expressing a subgenomic RNA replicon of Con1 (genotype 1b) sequence origin. Briefly: microbe, parasite or virus in culture. The following applies: Hepatitis C virus; for pIC50: Huh-7.

Molecules are shown by their SMILES. pIC50: −log10 of the molar value. Where a name gives a salt, the structure may show the parent alone.

Take `C[C@]12Cc3c[nH]nc3C[C@@H]1CC[C@@H]1[C@@H]2CC[C@@]2(C)[C@H]1CC[C@]2(C)O` [Stanozolol, stanozolol, reference compound]: the pIC50 (commonly the negative decadic logarithm of the IC50, by convention in mol/L) was 4.82.

Consider `CN(C)CCCN1c2ccccc2Sc2ccccc21` [Promazine (e.g., hydrochloride), promazine, reference compound], for which the pIC50 was 4.79. For the compound `O=C(CCCN1CCC(O)(c2cccc(C(F)(F)F)c2)CC1)c1ccc(F)cc1` [Trifluperidol, reference compound], the pIC50 was 5.11. The compound `Nc1cccc(OCCCCCOc2cccc(N)c2)c1` [3,3′-(Pentamethylenedioxy)dianiline, reference compound] had a pIC50 of 5.79. As for `Nc1ccc(OCCCCCOc2ccc(N)cc2)cc1` [1,5-Bis(4-aminophenoxy)pentane, reference compound], the pIC50 was 5.77. In turn, `COc1c(C)c2c(c(O)c1C/C=C(\C)CCC(=O)O)C(=O)OC2` [Mycophenolic Acid, Mycophenolic acid, reference compound] showed a pIC50 of 6.12. For `COC(=O)Nc1nc2ccc([S+]([O-])c3ccccc3)cc2[nH]1` (stereo not drawn) [Oxfendazole, reference compound], the pIC50 is 5.14. The compound `CCN(CC)CCCC(C)Nc1ccnc2cc(Cl)ccc12` (stereo not drawn) [Chloroquine (e.g., phosphate), Chloroquine, reference compound] gave a pIC50 of 5.32.

As for `Cc1ccc(O)c([C@H](CCN(C(C)C)C(C)C)c2ccccc2)c1` [Tolterodine (e.g., tartrate), Tolterodine, reference compound], the pIC50 was 4.56. On the same count and under the same terms, next, `C[C@H]1[C@@H](O)O[C@@H]2O[C@@]3(C)CC[C@H]4[C@H](C)CC[C@@H]1[C@@]24OO3` [Dihydroartemisinin, dihydroartemisinin, reference compound]: 5.41; `C[C@H]1[C@H](OC(=O)CCC(=O)O)O[C@@H]2O[C@@]3(C)CC[C@H]4[C@H](C)CC[C@@H]1[C@@]24OO3` [Artesunate, artesunate, reference compound]: 5.43; `COc1cc(C=O)ccc1O` [Vanillin (e.g., acetate), Vanillin]: 5.43. `CC(C)C(C(=O)OC(C#N)c1cccc(Oc2ccccc2)c1)c1ccc(Cl)cc1` (stereo not drawn) [Fenvalerate] showed a pIC50 of 4.72. As to `COc1cc(/C=C/C(=O)CC(=O)/C=C/c2ccc(O)c(OC)c2)ccc1O` [Curcumin, curcumin], the pIC50 is 5.06.

Compound `CCC[C@H](NC(=O)[C@@H]1[C@H]2CCC[C@H]2CN1C(=O)[C@@H](NC(=O)[C@@H](NC(=O)c1cnccn1)C1CCCCC1)C(C)(C)C)C(=O)C(=O)NC1CC1` [Telaprevir (VX-950), vx-950, reference compound] had a pIC50 of 6.28. `CSc1ccc(Oc2ccccc2CN(C)C)cc1` [Compound 35, N,N-dimethyl(2-(4-(methylthio)phenoxy)phenyl)methanamine]: the Emax (Huh-7, read-out: Max Effect@CC30 (inhibition)) is 48%. In the case of `O=C1CC(O)(c2ccccc2)Oc2ccccc21` (stereo not drawn) [2-Hydroxyflavanone, 2-hydroxyflavanone, reference compound], the pIC50 was 5.61. `CN(C)CCOc1ccc(/C(=C(/CCCl)c2ccccc2)c2ccccc2)cc1` [Toremifene, reference compound] had a pIC50 of 4.80. As for `C[C@]12CCC(=O)C=C1CC[C@@H]1[C@@H]2CC[C@@]2(C)[C@H]1CC[C@]2(C)O` [Methyltestosterone, methyltestosterone, reference compound], the pIC50 was 4.72. `CCC(C)(C)C(=O)O[C@H]1C[C@@H](C)C=C2C=C[C@H](C)[C@H](CC[C@@H]3C[C@@H](O)CC(=O)O3)[C@H]21` [Simvastatin, simvastatin, reference compound] had a pIC50 of 4.67. The compound `N[C@@H](Cc1ccc(N(CCCl)CCCl)cc1)C(=O)O` [Melphalan, reference compound] had a pIC50 of 5.23. Regarding `C[C@]12CC[C@H](O)CC1=CC[C@@H]1[C@@H]2CC[C@]2(C)C(=O)CC[C@@H]12` [Dehydroepiandrosterone, reference compound], the pIC50 is 4.95. On the same count and under the same terms, next, `CCN(CC)CCCC(C)Nc1c2ccc(Cl)cc2nc2ccc(OC)cc12` (stereo not drawn) [Quinacrine, reference compound]: 5.38.

On to `CC[N+](C)(CC)CCC[n+]1c(-c2ccccc2)c2cc(N)ccc2c2ccc(N)cc21` [Propidium (e.g., iodide), Propidium, reference compound], for which the pIC50 is 5.03. With `COc1ccc(O)cc1` [Mequinol, reference compound], the pIC50 was 4.73.

In turn, `Nc1ccc(/N=N/c2ccccc2)c(N)n1` [Phenazopyridine (e.g., hydrochloride), Phenazopyridine, reference compound] gave a pIC50 of 5.11. For the compound `COC(=O)[C@H]1[C@H]2C[C@@H]3c4[nH]c5cc(OC)ccc5c4CCN3C[C@H]2C[C@@H](OC(=O)c2cc(OC)c(OC)c(OC)c2)[C@@H]1OC` [Reserpine, reference compound], the pIC50 was 4.60. For the compound `O=c1cc(N2CCOCC2)oc2c(-c3ccccc3)cccc12` [LY 294002, reference compound], the pIC50 was 5.47. On the same count and under the same terms, next, `Nc1nc(F)nc2c1ncn2[C@@H]1O[C@H](CO)[C@@H](O)[C@@H]1O` [Fludarabine, reference compound]: 5.35; `CN(C)C/C=C(/c1ccc(Br)cc1)c1cccnc1` [Zimelidine (e.g., dihydrochloride), Zimelidine, reference compound]: 4.82; `COC(=O)Nc1nc2ccc(Sc3ccccc3)cc2[nH]1` [Fenbendazole, reference compound]: 6.38. Take `CC1=C(/C=C/C(C)=C/C=C/C(C)=C/C=C/C=C(C)/C=C/C=C(C)/C=C/C2=C(C)CCCC2(C)C)C(C)(C)CCC1` [Beta-Carotene]: the pIC50 was 4.73. As for `Oc1ccc(OCc2ccccc2)cc1` [Monobenzone, reference compound], the negative-log IC50 (pIC50) was 5.80. Turning to `CN(Cc1cc(Br)cc(Br)c1N)C1CCCCC1` [Bromhexine, reference compound], the pIC50 was 4.85. With `CN(C)CCOC(C)(c1ccccc1)c1ccc(Cl)cc1` (stereo not drawn) [Chlorphenoxamine (e.g., hydrochloride), chlorphenoxamine, reference compound], the pIC50 is 4.79.

On to `C[C@@H]1C[C@@H]([C@H](O)CC2CC(=O)NC(=O)C2)C(=O)[C@@H](C)C1` [Cycloheximide, reference compound], for which the pIC50 is 6.74.

With `COCCCC/C(=N\OCCN)c1ccc(C(F)(F)F)cc1` [Fluvoxamine (e.g., maleate), Fluvoxamine, reference compound], the pIC50 is 4.62.

For `CC1(C)O[C@@H]2C[C@H]3[C@@H]4CCC5=CC(=O)CC[C@]5(C)[C@@]4(F)[C@@H](O)C[C@]3(C)[C@]2(C(=O)CCl)O1` [Halcinonide, halcinonide, reference compound], the pIC50 is 4.76. As for `CC1=C(/C=C/C(C)=C/C=C/C(C)=C/C(=O)Nc2ccc(O)cc2)C(C)(C)CCC1` [Fenretinide, reference compound], the pIC50 was 5.65. Same read-out and setting: next, `CC(C)N1CCN(c2ccc(OCC3COC(Cn4cncn4)(c4ccc(Cl)cc4Cl)O3)cc2)CC1` (stereo not drawn) [Terconazole, reference compound]: 5.59; `O=C1Nc2ccc(Cl)cc2[C@@](C#CC2CC2)(C(F)(F)F)O1` [Efavirenz, efavirenz, reference compound]: 4.81; `CCOc1cc(CC(=O)N[C@@H](CC(C)C)c2ccccc2N2CCCCC2)ccc1C(=O)O` [Repaglinide, reference compound]: 4.91. Still for that read-out and setting: with `CC[C@@]1(O)C(=O)OCc2c1cc1n(c2=O)Cc2cc3c(CN(C)C)c(O)ccc3nc2-1` [Topotecan (e.g., hydrochloride), topotecan, reference compound] the figure was 7.02; with `COc1ccc2cc1Oc1ccc(cc1)C[C@H]1c3c(cc4c(c3Oc3cc5c(cc3OC)CCN(C)[C@@H]5C2)OCO4)CCN1C` [Cepharanthine, reference compound], 4.71. In turn, `Nc1ccn([C@@H]2O[C@H](CO)[C@@H](O)C2(F)F)c(=O)n1` [Gemcitabine (e.g., hydrochloride), Gemcitabine, reference compound] showed a pIC50 of 7.22. The same measure, in the same setting: with `CC[C@H]1CN2CCc3cc(OC)c(OC)cc3[C@@H]2C[C@@H]1C[C@H]1NCCc2cc(OC)c(OC)cc21` [Emetine (e.g., dihydrochloride hydrate), Emetine, reference compound] the figure was 7.52. `CNC(=O)Oc1cccc2ccccc12` [Carbaryl]: the pIC50 is 5.02.

`CCCCCCCCCCCCCCOc1ccc(C(=O)O)o1` [TOFA, 5-(tetradecyloxy)-2-furancarboxylic acid, reference compound] gave a pIC50 of 5.26.

The compound `COc1ccc2c(c1OC)C(=O)O[C@@H]2[C@H]1c2c(cc3c(c2OC)OCO3)CCN1C` [Noscapine, reference compound] had a pIC50 of 4.80. `COC(=O)[C@H]1[C@H]2C[C@@H]3c4[nH]c5cc(OC)ccc5c4CCN3C[C@H]2C[C@@H](OC(=O)/C=C/c2cc(OC)c(OC)c(OC)c2)[C@@H]1OC` [Rescinnamine, reference compound] showed a pIC50 of 5.10. The same measure, in the same setting: next, `N[C@H](Cc1cc(I)c(Oc2cc(I)c(O)c(I)c2)c(I)c1)C(=O)O` [Dextrothyroxine (e.g., sodium), dextrothyroxine, reference compound]: 5.30.

In turn, `CCc1cn([C@H]2C[C@H](O)[C@@H](CO)O2)c(=O)[nH]c1=O` [Edoxudine, edoxudine, reference compound] had a negative logarithm of the IC50 (pIC50) of 5.71. With `CC(=O)O[C@H]1C(=O)[C@@]2(C)[C@H]([C@H](OC(=O)c3ccccc3)[C@]3(O)C[C@H](OC(=O)[C@H](O)[C@@H](NC(=O)c4ccccc4)c4ccccc4)C(C)=C1C3(C)C)[C@]1(OC(C)=O)CO[C@@H]1C[C@@H]2O` [Paclitaxel, reference compound], the pIC50 is 8.04. The same measure, in the same setting: next, `CCOC(=O)c1ccc(N)cc1` [Benzocaine, reference compound]: 4.86.

The values are drawn from patent publication US20100009970A1, “COMPOSITIONS AND METHODS FOR TREATMENT OF VIRAL DISEASES” (Combinatorx (Singapore) Pte. Ltd., priority 2008, published 2010).
